How the values were obtained:
[1] = target: T1, P-type amylase (Calibzyme P) (Homo sapiens, UniProt P04746); experiment: amylase isozyme activity assay with sodium azide as activator, P-type amylase sample; assay type: biochemical; conditions: for Percent residual enzyme activity: composition C/D
T1 construct: purchased International Reagents Corporation Calibzyme P
T1 sequence (P04746 16-511): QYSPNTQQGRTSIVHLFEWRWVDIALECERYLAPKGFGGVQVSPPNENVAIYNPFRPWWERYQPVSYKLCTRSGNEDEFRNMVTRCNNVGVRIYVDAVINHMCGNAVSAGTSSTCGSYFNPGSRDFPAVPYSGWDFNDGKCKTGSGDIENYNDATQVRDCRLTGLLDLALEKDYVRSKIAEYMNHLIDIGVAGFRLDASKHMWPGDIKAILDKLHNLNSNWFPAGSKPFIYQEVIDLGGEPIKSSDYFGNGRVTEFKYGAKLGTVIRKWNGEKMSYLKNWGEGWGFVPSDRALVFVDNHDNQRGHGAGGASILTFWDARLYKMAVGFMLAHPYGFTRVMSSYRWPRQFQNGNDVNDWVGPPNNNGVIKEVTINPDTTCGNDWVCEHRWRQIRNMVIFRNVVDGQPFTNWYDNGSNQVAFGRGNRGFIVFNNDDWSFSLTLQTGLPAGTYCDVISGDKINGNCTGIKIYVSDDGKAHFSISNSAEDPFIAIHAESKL
Protocol: S-type amylase inhibitory antibody 88E8 (manufactured by Roche Diagnostics K.K.) 20 mg/L
S-type amylase inhibitory antibody 66C7 (manufactured by Roche Diagnostics K.K.) 5 mg/L
(§1) Substrate (GalG2CNP (Example) or G3CNP (Comparative Example)) 2.6 mM
(§2) (2) P-type Amylase (Calibzyme P, Manufactured by International Reagents Corporation)
Each of the above-mentioned samples (0.05 mL) was added to respective reagent C and D (3 mL) and the mixtures were left standing at 37° C. for 3 minutes. Then, change in absorbance at 405 nm was assayed and change in absorbance per minute was calculated.
In the Tables, P is the case where P-type amylase was used as the sample, and S is the case where S-type amylase was used. The relative sensitivity of P and S is based on the change in absorbance of G3CNP as 100, wherein sodium azide was 300 mM.
Percent residual enzyme activity and relative sensitivity were calculated by the following formulas.
Percent residual enzyme activity (%)=(change in absorbance of composition C)/(change in absorbance of composition D)×100
Relative sensitivity (%)=(change in absorbance of composition D)/(change in absorbance of Comparative Example wherein sodium azide was 300 mM)×100

[2] = target: T1, P-type amylase (Calibzyme P); experiment: amylase isozyme activity assay with potassium thiocyanate as activator, P-type amylase sample; assay type: biochemical; conditions: for Change in absorbance, Containing Antibody (Composition A) / Change in absorbance, Without antibody (Composition B) / Relative sensitivity / Percent residual enzyme activity: P-type amylase; for Relative sensitivity: G3CNP at 900 mM = 100; for Percent residual enzyme activity: composition A/B
Protocol: A reagent for amylase isozyme activity assay comprising each composition as mentioned below was prepared. In the Table showing the composition, GalG2CNP (Example) is 2-chloro-4-nitrophenyl 4-O-β-D-galactopyranosylmaltoside, and G3CNP (Comparative Example) is 2-chloro-4-nitrophenylmaltotrioside.
S-type amylase-inhibiting antibody 88E8 (manufactured by Roche Diagnostics K.K.) 20 mg/L
S-type amylase-inhibiting antibody 66C7 (manufactured by Roche Diagnostics K.K.) 5 mg/L
as §1, §2
Each sample (0.05 mL was added to the reagent A (3 mL) and the reagent B (3 mL), respectively, and the mixtures were allowed to stand at 37° C. for 3 minutes. Then, the change in absorbance at 405 nm was assayed, and the change in absorbance per minute was calculated. The results are shown in Tables 1 and 2.
In the Tables, P is the case where P-type amylase was used as the sample, and S is the case where S-type amylase was used.
Percent residual enzyme activity (%)=(change in absorbance of composition A)/(change in absorbance of composition B)×100
Relative sensitivity (%)=(change in absorbance of composition B)/(change in absorbance of Comparative Example wherein potassium thiocyanate was 900 mM)×100

O=[N+]([O-])c1ccc(O[C@H]2O[C@H](CO)[C@@H](O[C@H]3O[C@H](CO)[C@@H](O[C@H]4O[C@H](CO)[C@@H](O)[C@H](O)[C@H]4O)[C@H](O)[C@H]3O)[C@H](O)[C@H]2O)c(Cl)c1 [Example G3CNP, 2-chloro-4-nitrophenylmaltotrioside, reference compound]
Change in absorbance, Containing Antibody (Composition C) ([1]; sodium azide 0 mM): 9.4 mABS/min
Change in absorbance, Without antibody (Composition D) ([1]; sodium azide 0 mM): 9.4 mABS/min
Relative sensitivity ([1]; sodium azide 0 mM, G3CNP at 300 mM = 100): 20.6%
Percent residual enzyme activity ([1]; sodium azide 0 mM): 100.0%
Change in absorbance, Containing Antibody (Composition C) ([1]; sodium azide 30 mM): 19.8 mABS/min
Change in absorbance, Without antibody (Composition D) ([1]; sodium azide 30 mM): 20.5 mABS/min
Relative sensitivity ([1]; sodium azide 30 mM, G3CNP at 300 mM = 100): 45.0%
Relative sensitivity ([1]; sodium azide 30 mM, G3CNP at 300 mM = 100, listed as Comparative Example 2): about 45%
Percent residual enzyme activity ([1]; sodium azide 30 mM): 96.6%
Change in absorbance, Containing Antibody (Composition C) ([1]; sodium azide 60 mM): 26.3 mABS/min
Change in absorbance, Without antibody (Composition D) ([1]; sodium azide 60 mM): 26.0 mABS/min
Relative sensitivity ([1]; sodium azide 60 mM, G3CNP at 300 mM = 100): 57.0%
Percent residual enzyme activity ([1]; sodium azide 60 mM): 101.2%
Change in absorbance, Containing Antibody (Composition C) ([1]; sodium azide 90 mM): 31.8 mABS/min
Change in absorbance, Without antibody (Composition D) ([1]; sodium azide 90 mM): 32.0 mABS/min
Relative sensitivity ([1]; sodium azide 90 mM, G3CNP at 300 mM = 100): 70.2%
Percent residual enzyme activity ([1]; sodium azide 90 mM): 99.4%
Change in absorbance, Containing Antibody (Composition C) ([1]; sodium azide 120 mM): 35.3 mABS/min
Change in absorbance, Without antibody (Composition D) ([1]; sodium azide 120 mM): 33.7 mABS/min
Relative sensitivity ([1]; sodium azide 120 mM, G3CNP at 300 mM = 100): 73.9%
Percent residual enzyme activity ([1]; sodium azide 120 mM): 104.7%
Change in absorbance, Containing Antibody (Composition C) ([1]; sodium azide 150 mM): 37.5 mABS/min
Change in absorbance, Without antibody (Composition D) ([1]; sodium azide 150 mM): 37.1 mABS/min
Relative sensitivity ([1]; sodium azide 150 mM, G3CNP at 300 mM = 100): 81.4%
Percent residual enzyme activity ([1]; sodium azide 150 mM): 101.1%
Change in absorbance, Containing Antibody (Composition C) ([1]; sodium azide 200 mM): 40.9 mABS/min
Change in absorbance, Without antibody (Composition D) ([1]; sodium azide 200 mM): 41.3 mABS/min
Relative sensitivity ([1]; sodium azide 200 mM, G3CNP at 300 mM = 100): 90.6%
Percent residual enzyme activity ([1]; sodium azide 200 mM): 99.0%
Change in absorbance, Containing Antibody (Composition C) ([1]; sodium azide 250 mM): 43.6 mABS/min
Change in absorbance, Without antibody (Composition D) ([1]; sodium azide 250 mM): 42.8 mABS/min
Relative sensitivity ([1]; sodium azide 250 mM, G3CNP at 300 mM = 100): 93.9%
Percent residual enzyme activity ([1]; sodium azide 250 mM): 101.9%
Change in absorbance, Containing Antibody (Composition C) ([1]; sodium azide 300 mM): 45.4 mABS/min
Change in absorbance, Without antibody (Composition D) ([1]; sodium azide 300 mM): 45.6 mABS/min
Relative sensitivity ([1]; sodium azide 300 mM, G3CNP at 300 mM = 100): 100.0%
Percent residual enzyme activity ([1]; sodium azide 300 mM): 99.6%
Change in absorbance, Containing Antibody (Composition A) ([2]; potassium thiocyanate 0 mM): 9.3 mABS/min
Change in absorbance, Without antibody (Composition B) ([2]; potassium thiocyanate 0 mM): 9.3 mABS/min
Relative sensitivity ([2]; potassium thiocyanate 0 mM): 19.4%
Percent residual enzyme activity ([2]; potassium thiocyanate 0 mM): 100.0%
Change in absorbance, Containing Antibody (Composition A) ([2]; potassium thiocyanate 50 mM): 17.1 mABS/min
Change in absorbance, Without antibody (Composition B) ([2]; potassium thiocyanate 50 mM): 17.7 mABS/min
Relative sensitivity ([2]; potassium thiocyanate 50 mM): 37.0%
Percent residual enzyme activity ([2]; potassium thiocyanate 50 mM): 96.6%
Change in absorbance, Containing Antibody (Composition A) ([2]; potassium thiocyanate 100 mM): 22.3 mABS/min
Change in absorbance, Without antibody (Composition B) ([2]; potassium thiocyanate 100 mM): 23.4 mABS/min
Relative sensitivity ([2]; potassium thiocyanate 100 mM): 48.9%
Percent residual enzyme activity ([2]; potassium thiocyanate 100 mM): 95.3%
Change in absorbance, Containing Antibody (Composition A) ([2]; potassium thiocyanate 140 mM): 26.1 mABS/min
Change in absorbance, Without antibody (Composition B) ([2]; potassium thiocyanate 140 mM): 27.2 mABS/min
Relative sensitivity ([2]; potassium thiocyanate 140 mM): 56.8%
Percent residual enzyme activity ([2]; potassium thiocyanate 140 mM): 96.0%
Change in absorbance, Containing Antibody (Composition A) ([2]; potassium thiocyanate 200 mM): 30.3 mABS/min
Change in absorbance, Without antibody (Composition B) ([2]; potassium thiocyanate 200 mM): 31.6 mABS/min
Relative sensitivity ([2]; potassium thiocyanate 200 mM): 66.0%
Percent residual enzyme activity ([2]; potassium thiocyanate 200 mM): 95.9%
Change in absorbance, Containing Antibody (Composition A) ([2]; potassium thiocyanate 300 mM): 37.3 mABS/min
Change in absorbance, Without antibody (Composition B) ([2]; potassium thiocyanate 300 mM): 39.3 mABS/min
Relative sensitivity ([2]; potassium thiocyanate 300 mM): 82.0%
Percent residual enzyme activity ([2]; potassium thiocyanate 300 mM): 94.9%
Change in absorbance, Containing Antibody (Composition A) ([2]; potassium thiocyanate 400 mM): 42.6 mABS/min
Change in absorbance, Without antibody (Composition B) ([2]; potassium thiocyanate 400 mM): 43.7 mABS/min
Relative sensitivity ([2]; potassium thiocyanate 400 mM): 91.2%
Percent residual enzyme activity ([2]; potassium thiocyanate 400 mM): 97.5%
Change in absorbance, Containing Antibody (Composition A) ([2]; potassium thiocyanate 500 mM): 46.6 mABS/min
Change in absorbance, Without antibody (Composition B) ([2]; potassium thiocyanate 500 mM): 46.7 mABS/min
Relative sensitivity ([2]; potassium thiocyanate 500 mM): 97.5%
Percent residual enzyme activity ([2]; potassium thiocyanate 500 mM): 99.8%
Change in absorbance, Containing Antibody (Composition A) ([2]; potassium thiocyanate 600 mM): 48.1 mABS/min
Change in absorbance, Without antibody (Composition B) ([2]; potassium thiocyanate 600 mM): 47.5 mABS/min
Relative sensitivity ([2]; potassium thiocyanate 600 mM): 99.2%
Percent residual enzyme activity ([2]; potassium thiocyanate 600 mM): 101.3%
Change in absorbance, Containing Antibody (Composition A) ([2]; potassium thiocyanate 700 mM): 49.9 mABS/min
Change in absorbance, Without antibody (Composition B) ([2]; potassium thiocyanate 700 mM): 49.4 mABS/min
Relative sensitivity ([2]; potassium thiocyanate 700 mM): 103.1%
Percent residual enzyme activity ([2]; potassium thiocyanate 700 mM): 101.0%
Change in absorbance, Containing Antibody (Composition A) ([2]; potassium thiocyanate 800 mM): 49.8 mABS/min
Change in absorbance, Without antibody (Composition B) ([2]; potassium thiocyanate 800 mM): 48.8 mABS/min
Relative sensitivity ([2]; potassium thiocyanate 800 mM): 101.9%
Percent residual enzyme activity ([2]; potassium thiocyanate 800 mM): 102.0%
Change in absorbance, Containing Antibody (Composition A) ([2]; potassium thiocyanate 900 mM): 48.6 mABS/min
Change in absorbance, Without antibody (Composition B) ([2]; potassium thiocyanate 900 mM): 47.9 mABS/min
Relative sensitivity ([2]; potassium thiocyanate 900 mM): 100.0%
Percent residual enzyme activity ([2]; potassium thiocyanate 900 mM): 101.5%
relative sensitivity of P-type amylase as multiple of the standard sensitivity ([2]; potassium thiocyanate 200 mM, standard = G3CNP at 900 mM): about ⅔

Reference: patent US6350585B1, “Reagent for assay of amylase isozyme activity” (priority 1998, dated 2002)
